Reference: patent US10219516B2, “Molecules having pesticidal utility, and intermediates, compositions, and processes, related thereto” (priority 2015, dated 2019)

Tests used:
Type in all cases: in vivo
[1] = test system: Beet Armyworm (Spodoptera exigua, LAPHEG); assay: Bioassay on Beet Armyworm (BAW), 128-well diet tray assay; details: Species BAW (Beet Armyworm), read-out: BAW (Biological Results, rating)
Method in brief: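 Diet in each of eight wells received 50 μg/cm^2 of test molecule (90:10 acetone-water, dried), then one to five second-instar larvae were added. Mortality (%) was scored after five to seven days at 25° C. under 14:10 light-dark and averaged across the wells.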

[2] = test system: Cabbage Looper (Trichoplusia ni, TRIPNI); assay: Bioassay on Cabbage Looper (CL), 128-well diet tray assay; details: Trichoplusia ni; Species CL (Cabbage Looper); read-out: CL (Biological Results, rating)
Method in brief: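 Diet-incorporation-free surface assay: 50 μg/cm^2 compound in acetone-water (90:10), dried on diet; 1–5 2nd-instar larvae/well; 8 wells; vented cover; 25° C., 14:10 L:D, 5–7 d; % mortality averaged over wells.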

[3] = test system: Yellow Fever Mosquito (Aedes aegypti, AEDSAE); assay: Bioassay on Yellow Fever Mosquito (YFM), 96-well plate larval assay; details: Species YFM (Yellow Fever Mosquito)
Method in brief: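 Each well was scored for mortality after 3 days at room temperature under a non-evaporative lid. Test molecules came from DMSO masters (4000 ppm stock) diluted with water/acetone 90:10 and dispensed into six replicate plates, which were then infested with roughly 1-day-old larvae in liver-powder water.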

| SMILES | pest or weed control at 50 µg/cm2 [1] [%] | pest or weed control at 50 µg/cm2 [2] [%] | YFM (Biological Results, rating) [3] |
| --- | --- | --- | --- |
| Nc1c(F)ccc(NC(=O)c2cc(NC(=O)[C@H]3[C@H](c4cc(Cl)cc(Cl)c4)C3(Cl)Cl)ccc2Cl)c1F (relative stereo) [F245, trans-N-(3-Amino-2,4-difluorophenyl)-2-chloro-5-(2,2-dichloro-3-(3,5-dichlorophenyl)cyclopropane-1-carboxamido)benzamide] | 50 to 100 | 50 to 100 | A (80-100) |
| O=C(Nc1ccccc1)c1cc(NC(=O)[C@H]2[C@H](c3cc(Cl)cc(Cl)c3)C2(Cl)Cl)cc(Cl)c1Cl (relative stereo) [F246, trans-2,3-Dichloro-5-(2,2-dichloro-3-(3,5-dichlorophenyl)cyclopropane-1-carboxamido)-N-phenylbenzamide] | 50 to 100 | 50 to 100 | A (80-100) |
| O=C(Nc1ccc(F)cc1F)c1cc(NC(=O)[C@H]2[C@H](c3cc(Cl)cc(Cl)c3)C2(Cl)Cl)cc(Cl)c1Cl (relative stereo) [F247, trans-2,3-Dichloro-5-(2,2-dichloro-3-(3,5-dichlorophenyl)cyclopropane-1-carboxamido)-N-(2,4-difluorophenyl)benzamide] | 50 to 100 | 50 to 100 | A (80-100) |
| CC(=O)Nc1ccc(NC(=O)c2cc(NC(=O)[C@H]3[C@H](c4cc(Cl)cc(Cl)c4)C3(Cl)Cl)cc(Cl)c2Cl)cc1 (relative stereo) [F248, trans-N-(4-Acetamidophenyl)-2,3-dichloro-5-(2,2-dichloro-3-(3,5-dichlorophenyl)cyclopropane-1-carboxamido)benzamide] | 50 to 100 | 50 to 100 | A (80-100) |
| CNc1ccc(NC(=O)c2cc(NC(=O)[C@H]3[C@H](c4cc(Cl)cc(Cl)c4)C3(Cl)Cl)cc(Cl)c2Cl)cc1 (relative stereo) [F249, trans-2,3-Dichloro-5-(2,2-dichloro-3-(3,5-dichlorophenyl)cyclopropane-1-carboxamido)-N-(4-(methylamino)phenyl)benzamide] | 50 to 100 | 50 to 100 | A (80-100) |
| COC(=O)C(O)(c1ccc(NC(=O)c2cc(NC(=O)[C@H]3[C@H](c4cc(Cl)cc(Cl)c4)C3(Cl)Cl)ccc2Cl)c(C)c1)C(F)(F)F (relative stereo) [F257, Methyl 2-(4-(2-chloro-5-(trans)-(2,2-dichloro-3-(3,5-dichlorophenyl)cyclopropane-1-carboxamido)benzamido)-3-methylphenyl)-3,3,3-trifluoro-2-hydroxypropanoate] | 50 to 100 | 50 to 100 | A (80-100) |
| C=C(c1ccc(NC(=O)c2cc(NC(=O)[C@H]3[C@H](c4cc(Cl)cc(Cl)c4)C3(Cl)Cl)ccc2Cl)c(C)c1)C(F)(F)F (relative stereo) [F258, 2-Chloro-5-(trans)-(2,2-dichloro-3-(3,5-dichlorophenyl)cyclopropane-1-carboxamido)-N-(2-methyl-4-(3,3,3-trifluoroprop-1-en-2-yl)phenyl)benzamide] | 50 to 100 | 50 to 100 | B (More than 0-Less than 80) |
| O=C(Nc1ccccc1)c1cc(NC(=O)[C@H]2[C@H](c3ccc(F)c(Cl)c3)C2(Cl)Cl)ccc1Cl (relative stereo) [F259, trans-2-Chloro-5-(2,2-dichloro-3-(3-chloro-4-fluorophenyl)cyclopropane-1-carboxamido)-N-phenylbenzamide] | 50 to 100 | 50 to 100 | A (80-100) |
| CC(=O)Nc1ccc(NC(=O)c2cc(NC(=O)[C@H]3[C@H](c4ccc(F)c(Cl)c4)C3(Cl)Cl)ccc2Cl)cc1 (relative stereo) [F260, trans-N-(4-Acetamidophenyl)-2-chloro-5-(2,2-dichloro-3-(3-chloro-4-fluorophenyl)cyclopropane-1-carboxamido)benzamide] | 50 to 100 | 50 to 100 | A (80-100) |
| CNc1ccc(NC(=O)c2cc(NC(=O)[C@H]3[C@H](c4ccc(F)c(Cl)c4)C3(Cl)Cl)ccc2Cl)cc1 (relative stereo) [F261, trans-2-Chloro-5-(2,2-dichloro-3-(3-chloro-4-fluorophenyl)cyclopropane-1-carboxamido)-N-(4-(methylamino)phenyl)benzamide] | 50 to 100 | 50 to 100 | A (80-100) |
| Cc1cc(NC(=O)OC(C)(C)C)ccc1NC(=O)c1cccc(NC(=O)[C@H]2[C@H](c3cc(Cl)c(Cl)c(Cl)c3)C2(Cl)Cl)c1 (relative stereo) [F262, trans-tert-Butyl (4-(3-(2,2-dichloro-3-(3,4,5-trichlorophenyl)cyclopropane-1-carboxamido)benzamido)-3-methylphenyl)carbamate] | 50 to 100 | 50 to 100 | B (More than 0-Less than 80) |
| Cc1cc(NC(=O)OC(C)(C)C)ccc1NC(=O)c1cccc(NC(=O)[C@H]2[C@H](c3cc(Cl)cc(Cl)c3)C2(Cl)Cl)c1 (relative stereo) [F263, trans-tert-Butyl (4-(3-(2,2-dichloro-3-(3,5-dichlorophenyl)cyclopropane-1-carboxamido)benzamido)-3-methylphenyl)carbamate] | 50 to 100 | 50 to 100 | B (More than 0-Less than 80) |
| Cc1cc(N)ccc1NC(=O)c1cccc(NC(=O)[C@H]2[C@H](c3cc(Cl)c(Cl)c(Cl)c3)C2(Cl)Cl)c1 (relative stereo) [F264, trans-N-(4-Amino-2-methylphenyl)-3-(2,2-dichloro-3-(3,4,5-trichlorophenyl)cyclopropane-1-carboxamido)benzamide] | 50 to 100 | 50 to 100 | A (80-100) |
| Cc1cc(N)ccc1NC(=O)c1cccc(NC(=O)[C@H]2[C@H](c3ccc(Cl)c(Cl)c3)C2(Cl)Cl)c1 (relative stereo) [F265, trans-N-(4-Amino-2-methylphenyl)-3-(2,2-dichloro-3-(3,4-dichlorophenyl)cyclopropane-1-carboxamido)benzamide] | 50 to 100 | 50 to 100 | A (80-100) |
| Cc1cc(N)ccc1NC(=O)c1cccc(NC(=O)[C@H]2[C@H](c3cc(Cl)cc(Cl)c3)C2(Cl)Cl)c1 (relative stereo) [F266, trans-N-(4-Amino-2-methylphenyl)-3-(2,2-dichloro-3-(3,5-dichlorophenyl)cyclopropane-1-carboxamido)benzamide] | 50 to 100 | 50 to 100 | A (80-100) |
| N#Cc1cc(F)ccc1NC(=O)c1cccc(NC(=O)[C@H]2[C@H](c3cc(Cl)c(Cl)c(Cl)c3)C2(Cl)Cl)c1 (relative stereo) [F267, trans-N-(2-cyano-4-fluorophenyl)-3-(2,2-dichloro-3-(3,4,5-trichlorophenyl)cyclopropane-1-carboxamido)benzamide] | 50 to 100 | 50 to 100 | B (More than 0-Less than 80) |
